Data set [1] has as its system MRC5 normal fibroblast cells. In words: Photo/dark cytotoxicity (SRB assay).
Data set [2] has as its system A2780 ovarian carcinoma cells. The following applies: for IC50: 1 h incubation, 24 h recovery.
Data set [3] relates to cisplatin-resistant A2780cis ovarian carcinoma cells. As to conditions: 1 h incubation, 24 h recovery.
For data set [4], the system named is A2780 cells. In words: Cell cycle analysis by flow cytometry. The following applies: A2780, dark; equipotent photocytotoxic IC50 concentration, 1 h exposure + 1 h dark. The format is cell-based, human. On the procedure:
(§1) All flow cytometry experiments were carried out using a Becton Dickinson FACScan flow cytometer in the School of Life Sciences at Warwick University. Typically, cells were seeded in 6-well plates using 1.5 × 10^6 cells/well. Experiments included 24 h of preincubation in drug-free media at 310 K in a CO2 humidified atmosphere, followed by 1 h of drug exposure under the same conditions. After this, samples were irradiated for 1 h. For comparison, the dark plates were kept in the incubator for another 1 h. Supernatants were removed, cells were washed with PBS. Samples were then collected after trypsinization, washed with PBS, and stained in the dark with a mixture of propidium iodide and RNase. After 30 min of staining, the cell samples were washed and set up for flow cytometry reading on the red channel FL-2.
(§2) The effect of complexes 3 and 4 in the presence of light on the progression of the cell cycle was studied. Cells were exposed to prodrugs at equipotent photocytotoxic IC50 concentrations for 1 h in the dark and then irradiated for 1 h (465 nm, 4.8 mW/cm^2, 1 h). After 24 h of recovery, cells were stained in the dark with propidium iodide in the presence of RNase and then analyzed by flow cytometry.

For another data set, the system named is A2780cis cells. In words: Cell cycle analysis by flow cytometry. The format is cell-based, human. The following applies: dark, equipotent photocytotoxic IC50 concentration, 1 h exposure + 1 h dark. As to the method:
as §1, §2

A further data set concerns OE19 cells. In words: Cell cycle analysis by flow cytometry. The format is cell-based, human. As to conditions: OE19, dark; equipotent photocytotoxic IC50 concentration, 1 h exposure + 1 h dark. As to the method:
as §1, §2

Data set [5] concerns OE19 esophageal adenocarcinoma cells. In words: Photo/dark cytotoxicity (SRB assay). As to conditions: 1 h incubation, 24 h recovery.
In data set [6] the test system is A2780 ovarian carcinoma cells. In words: cells. As to conditions: Homo sapiens, A2780, light or radiation study.
Data set [7] deals with cisplatin-resistant A2780cis ovarian carcinoma cells. In words: cells. The following applies: Homo sapiens, light or radiation study.
The test system of a further data set is parental A2780 cells. Also noted: method as in PMID 20677309. The following applies: cited from earlier work.
Data set [8] has as its system plasmid pUC19 linearized by EcoRI. In words: Formation of DNA interstrand cross-links. The following applies: irradiated with blue light 1 h + 23 h dark, 10 mM NaClO4, 310 K; rb 0.003 and 0.0006 (FM-190) or 0.00015 and 0.0003 (1, 4). The format is biochemical. As to the method: Solutions of the plasmid pUC19 linearized by EcoRI (50 μg/mL) were incubated with the Pt complex under irradiation conditions (for 1 h and subsequently incubated in the dark for an additional 23 h) at various ri values in NaClO4 (10 mM) at 310 K. Autoradiograms were recorded of denaturing 1% agarose gel of linearized DNA, which was 3′-end-labeled and nonmodified or modified by FM-190, 1, and 4 photoactivated by visible light.
Therefore, we investigated the capability of irradiated 1 and 4 to form DNA interstrand cross-links as well. Plasmid pUC19 linearized by EcoRI (50 μg mL^–1) and the Pt complex were irradiated with blue light for 1 h and subsequently incubated in the dark for an additional 23 h in NaClO4 (10 mM) at 310 K. The plasmid was modified to the extent corresponding to the rb values of 0.003 and 0.0006 (in the case of FM-190) or 0.00015 and 0.0003 (in the case of 1 and 4) and analyzed by agarose gel electrophoresis under denaturing conditions (Figure 5C). Interstrand cross-linked DNA appears as the top band (marked as ICLs), migrating on the gel more slowly than single-stranded DNA (contained in the bottom bands and marked as ss). […] It is, therefore, reasonable to envisage that the treatment of DNA by irradiated dinuclear 1 or 4 results in the formation of trans GG interstrand DNA cross-links as in the case of the treatment with mononuclear complex FM-190.

The subject of data set [9] is A2780 cells. In words: Pt accumulation in cancer cells (ICP-MS). As to conditions: equipotent IC50 concentration, 1 h, in the dark. The format is cell-based, human.
In data set [10] the test system is negatively supercoiled pSP73KB plasmid. The arrangement: method as in PMID 22420335. The following applies: photoactivated, identical conditions; cited from earlier work.
The mark [11] stands for this setting: MRC5 normal cells, dark, 1 h incubation, 1 h dark, 24 h recovery.
Setting [12] is: MRC5 normal cells, irrad, 1 h incubation, 1 h irradiation (465 nm), 24 h recovery.
Setting [13] is: A2780, irrad, 1 h irradiation (465 nm, 4.8 mW/cm^2).

Read-outs that look alike come from different tables or passages of the source. Marks after values point to notes of the source that are not given here.

Here are results for three compounds from paper PMC6257630, “Photoactivatable Cell-Selective Dinuclear trans-Diazidoplatinum(IV) Anticancer Prodrugs” (Inorganic Chemistry, 2018).

`[NH2][Pt]([NH2])([Cl])[Cl]` [CDDP, cisplatin]: the IC50 in data set [1] (setting [11]) is above 100 µM; in data set [1] (setting [12]) it was above 100 µM; in data set [2] (A2780, dark, 1 h dark) it was above 100 µM; in data set [2] (setting [13]) it was above 100 µM; in data set [3] (dark, 1 h dark) it was above 100 µM; in data set [3] (irrad, 1 h irradiation (465 nm, 4.8 mW/cm^2)) it was above 100 µM. The half-maximal inhibitory concentration (IC50) was above 100 µM in data set [5] (OE19, dark, 1 h dark) and above 100 µM in [5] (OE19, irrad, 1 h irradiation (465 nm, 4.8 mW/cm^2)). The “% Cell Population, G1 phase” value in the data set on A2780 cells [4] was 32.1±0.5%; in the data set on A2780cis cells, 64.2±2.8%; in the data set with OE19 cells it was 36.3±1.2%. The “% Cell Population, G2/M phase” value is 67.4±0.9% in the data set on A2780 cells [4], 22.0±0.4% in the data set with A2780cis cells and 45.5±0.9% in the data set with OE19 cells. Moreover, the “% Cell Population, S phase” value in the data set on A2780 cells [4] was 0.4±0.5%; in the data set with A2780cis cells it was 13.8±2.4%; with OE19 cells, 18.2±0.3%.
On to `CN(C)CCCN1c2ccccc2Sc2ccc(Cl)cc21` [CPZ, chlorpromazine], for which the half-inhibitory concentration (IC50) in data set [1] (Homo sapiens, MRC5) was above 100 µM; in data set [1] (Homo sapiens, MRC5, light or radiation study) it was above 50 µM; in data set [6], 6 ± 0.3 µM; in data set [7], 6 ± 0.3 µM.
Regarding “trans,trans,trans-[Pt(N3)2(OH)2(py)2] [FM-190]”, the IC50 in data set [1] (setting [11]) is above 100 µM; in [1] (setting [12]), above 100 µM; in [2] (A2780, dark, 1 h dark) it was above 100 µM; in data set [2] (setting [13]), 7.1 ± 0.4 µM; in the data set on parental A2780 cells (parental A2780, irradiation with UVA (365 nm)), 1.4 µM. Further, the “PI (photocytotoxicity index)” value in [2] (A2780, dark vs irradiated (465 nm)) is given as above 14.0. Besides, in the data set on parental A2780 cells (irradiation with UVA (365 nm)), the “toxicity to parental A2780 compared with A2780cis” value is reported as 10 times. Moreover, in [8], the “frequencies of interstrand cross-linking” value worked out at 12.5 ± 0.5. In addition, in the data set with A2780 cells [9], the platinum accumulation is 0.8 ± 0.2 ^b ng/10^6 cells. In data set [10], the DNA unwinding angle is 28 ± 4 °.
